Source: patent US20250270200A1, “CTPS1 INHIBITORS AND USES THEREOF” (Nimbus Clotho, Inc., priority 2022, published 2025)
Blank lines part the entries; values can stand above or below the compound they belong to.

Target: T1, human CTPS1 (Homo sapiens, UniProt P17812)
T1 sequence (P17812 1-591): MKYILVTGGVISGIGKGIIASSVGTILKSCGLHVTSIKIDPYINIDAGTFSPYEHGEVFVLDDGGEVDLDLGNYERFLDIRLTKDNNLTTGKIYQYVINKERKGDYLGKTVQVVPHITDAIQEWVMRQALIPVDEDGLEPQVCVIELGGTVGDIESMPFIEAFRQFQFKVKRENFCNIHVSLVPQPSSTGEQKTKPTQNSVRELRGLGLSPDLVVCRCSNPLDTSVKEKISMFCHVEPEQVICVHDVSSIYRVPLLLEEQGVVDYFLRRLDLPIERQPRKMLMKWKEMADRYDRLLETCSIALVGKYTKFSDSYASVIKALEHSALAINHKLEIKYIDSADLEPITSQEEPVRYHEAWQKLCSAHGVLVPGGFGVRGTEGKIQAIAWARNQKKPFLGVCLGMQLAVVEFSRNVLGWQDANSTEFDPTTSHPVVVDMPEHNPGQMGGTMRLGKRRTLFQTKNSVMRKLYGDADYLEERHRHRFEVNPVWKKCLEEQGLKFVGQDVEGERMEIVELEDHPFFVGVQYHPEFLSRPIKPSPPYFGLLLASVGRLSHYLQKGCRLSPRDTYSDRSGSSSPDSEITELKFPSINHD
Test: ADP-Glo assay, human CTPS1 enzyme inhibition
Type: biochemical
Conditions: wild-type human CTPS1, 25 nM enzyme; ADP-Glo; read-out: ADP-Glo_WT_hCTPS1—25 nM_IC50 (IC50)
Experimental: The enzyme inhibitory activities of the compounds of the invention against the target of interest were determined using the ADP-Glo™ assay (Promega). Assays for human CTPS1 and CTPS2 were performed in 1× assay buffer containing 50 mM HEPES (Life Technologies), 10 mM Mg2+, 5 mM KCl, 2 mM DTT, 0.01% F-127, pH to 7.4 accordingly. All reagents are from Sigma-Aldrich, unless specified otherwise. Purified human full length active N-terminal FLAG-8×HIS-TEV tagged CTPS1 (UniprotKB—P17812, […]-CTPS1[1-591]) was generated using a mammalian expression system at Viva Biotech (Shanghai) Ltd.
Purified human CTPS1 protein was prepared in 1× assay buffer to the final working protein concentration required for the reaction. A 2.5 μL volume per well of human CTPS 1 protein was mixed with 0.1 μL per well of test compound dissolved in DMSO and pre-incubated at 25 degrees C. for 10 minutes. 2.5 μL per well of the reaction precursors ATP (UltraPure ATP from ADP-Glo™ kit) and UTP were then added and pre-incubated for an additional 10 minutes at 25 degrees C. Finally, the reaction was initiated by the addition of 5 μL of the reaction precursors L-glutamine and GTP. The final concentration of all reaction components in the assay: ATP (120 μM), UTP (160 μM), GTP (60 μM), L-Glutamine (100 μM), DMSO (1%), hCTPS1 (25 nM). This mixture was incubated for an appropriate amount of time within the determined linear phase of the reaction at 25 degrees C. under sealed plate conditions with constant agitation at 500 revolutions per minute (rpm). ADP-Glo™ reagent was added for 60 minutes (10 μL per well) and subsequently ADP-Glo™ development reagent was added for 60 minutes (20 μL per well) prior to signal detection in a microplate reader (Envision Multilabel Reader, Perkin Elmer). Following each reagent addition over the course of the assay, assay plates were pulse centrifuged for 1 minute at 1000 rpm.
The enzyme converts ATP to ADP and the ADP-Glo™ reagent subsequently depletes any remaining ATP in the reaction system. The ADP-Glo™ detection reagents converts the ADP that has been produced by the enzyme back into ATP, which is then utilized as a substrate together with luciferin for the enzyme luciferase. Light generated by this chemiluminescent reaction is quantified and is directly proportional to the amount of ADP produced by the CTPS1 enzyme reaction. […]

IC50: 50 to 100 nM
SMILES: CCOc1cncc(-c2cnc(C(=O)N[C@@H](CCN3CCC(F)CC3)c3cc(NS(=O)(=O)C4CC4)ccn3)s2)n1 (single isomer, unassigned) [I-15]

IC50: 5 to 25 nM
SMILES: CCOc1cncc(-c2cnc(C(=O)N[C@H](CCN3CCC(F)CC3)c3cc(NS(=O)(=O)C4CC4)ccn3)s2)n1 (single isomer, unassigned) [I-16]

IC50: > 100 nM
SMILES: CCOc1cncc(-c2cnc(C(=O)N[C@@H](C[C@@H]3CCCCN3C(C)C)c3cc(NS(=O)(=O)C4CC4)ccn3)s2)n1 (single isomer, unassigned) [I-26]

IC50: 5 to 25 nM
SMILES: CCOc1cncc(-c2cnc(C(=O)N[C@H](C[C@H]3CCCCN3C(C)C)c3cc(NS(=O)(=O)C4CC4)ccn3)s2)n1 (single isomer, unassigned) [I-27]

IC50: ≤ 5 nM
SMILES: CCOc1cncc(-c2cnc(C(=O)N[C@@H](C[C@H]3CCCCN3C(C)C)c3cc(NS(=O)(=O)C4CC4)ccn3)s2)n1 (single isomer, unassigned) [I-28]

IC50: > 100 nM
SMILES: CCOc1cncc(-c2cnc(C(=O)N[C@H](C[C@@H]3CCCCN3C(C)C)c3cc(NS(=O)(=O)C4CC4)ccn3)s2)n1 (single isomer, unassigned) [I-29]

IC50: 25 to 50 nM
SMILES: CCOc1cncc(-c2cnc(C(=O)N[C@@H](CN3C[C@H]4COC[C@H]4C3)c3cc(NS(=O)(=O)C4CC4)ccn3)s2)n1 (single isomer, unassigned) [I-30]

IC50: 5 to 25 nM
SMILES: CCOc1cncc(-c2cnc(C(=O)N[C@H](CN3C[C@H]4COC[C@H]4C3)c3cc(NS(=O)(=O)C4CC4)ccn3)s2)n1 (single isomer, unassigned) [I-31]

IC50: 25 to 50 nM
SMILES: CCOc1cncc(-c2cnc(C(=O)N[C@@H](CN3CCOC[C@H]3C)c3cc(NS(=O)(=O)C4CC4)ccn3)s2)n1 (single isomer, unassigned) [I-32]

IC50: 5 to 25 nM
SMILES: CCOc1cncc(-c2cnc(C(=O)N[C@H](CN3CCOC[C@H]3C)c3cc(NS(=O)(=O)C4CC4)ccn3)s2)n1 (single isomer, unassigned) [I-33]

IC50: 5 to 25 nM
SMILES: CCOc1cncc(-c2cnc(C(=O)N[C@@H](CN3CCOC[C@@H]3C)c3cc(NS(=O)(=O)C4CC4)ccn3)s2)n1 (single isomer, unassigned) [I-34]

IC50: ≤ 5 nM
SMILES: CCOc1cncc(-c2cnc(C(=O)N[C@H](CN3CCOC[C@@H]3C)c3cc(NS(=O)(=O)C4CC4)ccn3)s2)n1 (single isomer, unassigned) [I-35]

IC50: 50 to 100 nM
SMILES: CCOc1cncc(-c2cnc(C(=O)N[C@@H](CN3[C@@H]4CC[C@H]3COC4)c3cc(NS(=O)(=O)C4CC4)ccn3)s2)n1 (single isomer, unassigned) [I-36]

IC50: 5 to 25 nM
SMILES: CCOc1cncc(-c2cnc(C(=O)N[C@H](CN3[C@@H]4CC[C@H]3COC4)c3cc(NS(=O)(=O)C4CC4)ccn3)s2)n1 (single isomer, unassigned) [I-37]

Further lines, the compound ahead of its results:

SMILES: COCC[C@H](NC(=O)c1ncc(-c2cnn3ccc(Cl)cc23)s1)c1cc(NS(=O)(=O)C2CC2)ccn1 (single isomer, unassigned) [I-1]
IC50: 5 to 25 nM

SMILES: COCC[C@@H](NC(=O)c1ncc(-c2cnn3ccc(Cl)cc23)s1)c1cc(NS(=O)(=O)C2CC2)ccn1 (single isomer, unassigned) [I-2]
IC50: 5 to 25 nM

SMILES: COC[C@H](NC(=O)c1ncc(-c2cnn3ccc(Cl)cc23)s1)c1cc(NS(=O)(=O)C2CC2)ccn1 (single isomer, unassigned) [I-3]
IC50: 5 to 25 nM

SMILES: COC[C@@H](NC(=O)c1ncc(-c2cnn3ccc(Cl)cc23)s1)c1cc(NS(=O)(=O)C2CC2)ccn1 (single isomer, unassigned) [I-4]
IC50: 5 to 25 nM

SMILES: CCOc1cncc(-c2ccc(C(=O)N[C@@H](CCN3CCCCC3)c3cc(NS(=O)(=O)C4CC4)ccn3)c(F)c2F)n1 (single isomer, unassigned) [I-6]
IC50: > 100 nM

SMILES: CCOc1cncc(-c2ccc(C(=O)N[C@H](CCN3CCCCC3)c3cc(NS(=O)(=O)C4CC4)ccn3)c(F)c2F)n1 (single isomer, unassigned) [I-7]
IC50: 5 to 25 nM

SMILES: O=C(N[C@@H](CCN1CCCCC1)c1cc(NS(=O)(=O)C2CC2)ccn1)c1ncc(-c2cnn3ccc(Cl)cc23)s1 (single isomer, unassigned) [I-9]
IC50: > 100 nM

SMILES: O=C(N[C@H](CCN1CCCCC1)c1cc(NS(=O)(=O)C2CC2)ccn1)c1ncc(-c2cnn3ccc(Cl)cc23)s1 (single isomer, unassigned) [I-10]
IC50: 5 to 25 nM

SMILES: CCOc1cncc(-c2cnc(C(=O)N[C@@H](COC)c3nccc(NS(=O)(=O)C4CC4)c3F)s2)n1 (single isomer, unassigned) [I-11]
IC50: 5 to 25 nM

SMILES: CCOc1cncc(-c2cnc(C(=O)N[C@H](COC)c3nccc(NS(=O)(=O)C4CC4)c3F)s2)n1 (single isomer, unassigned) [I-12]
IC50: 5 to 25 nM

SMILES: CCOc1cncc(-c2cnc(C(=O)N[C@@H](CCN(C)C3CCCCC3)c3cc(NS(=O)(=O)C4CC4)ccn3)s2)n1 (single isomer, unassigned) [I-13]
IC50: 50 to 100 nM

SMILES: CCOc1cncc(-c2cnc(C(=O)N[C@H](CCN(C)C3CCCCC3)c3cc(NS(=O)(=O)C4CC4)ccn3)s2)n1 (single isomer, unassigned) [I-14]
IC50: 5 to 25 nM

SMILES: CCOc1cncc(-c2cnc(C(=O)N[C@H](CCN3CCCC4(CC4)C3)c3cc(NS(=O)(=O)C4CC4)ccn3)s2)n1 (single isomer, unassigned) [I-17]
IC50: ≤ 5 nM

SMILES: CCOc1cncc(-c2cnc(C(=O)N[C@@H](CCN3CCCC4(CC4)C3)c3cc(NS(=O)(=O)C4CC4)ccn3)s2)n1 (single isomer, unassigned) [I-18]
IC50: > 100 nM

SMILES: O=C(N[C@H](c1cc(NS(=O)(=O)C2CC2)ccn1)[C@H]1CCOC1)c1ncc(-c2cnn3ccc(Cl)cc23)s1 (single isomer, unassigned) [I-22]
IC50: 5 to 25 nM

SMILES: O=C(N[C@H](c1cc(NS(=O)(=O)C2CC2)ccn1)[C@@H]1CCOC1)c1ncc(-c2cnn3ccc(Cl)cc23)s1 (single isomer, unassigned) [I-23]
IC50: 5 to 25 nM

SMILES: O=C(N[C@@H](c1cc(NS(=O)(=O)C2CC2)ccn1)[C@@H]1CCOC1)c1ncc(-c2cnn3ccc(Cl)cc23)s1 (single isomer, unassigned) [I-24]
IC50: 5 to 25 nM

SMILES: O=C(N[C@@H](c1cc(NS(=O)(=O)C2CC2)ccn1)[C@H]1CCOC1)c1ncc(-c2cnn3ccc(Cl)cc23)s1 (single isomer, unassigned) [I-25]
IC50: 5 to 25 nM

SMILES: CCOc1cncc(-c2cnc(C(=O)N[C@@H](CN3CCCC3)c3cccc(NS(=O)(=O)C(F)F)c3)s2)n1 (single isomer, unassigned) [I-38]
IC50: 5 to 25 nM

SMILES: CCOc1cncc(-c2cnc(C(=O)N[C@H](CN3CCCC3)c3cccc(NS(=O)(=O)C(F)F)c3)s2)n1 (single isomer, unassigned) [I-39]
IC50: 25 to 50 nM

SMILES: CCOc1cncc(-c2cnc(C(=O)N[C@H](CN3CCN(C4CC4)CC3)c3cccc(NS(=O)(=O)C(F)F)c3)s2)n1 (single isomer, unassigned) [I-40]
IC50: 25 to 50 nM

SMILES: CCOc1cncc(-c2cnc(C(=O)N[C@@H](CN3CCN(C4CC4)CC3)c3cccc(NS(=O)(=O)C(F)F)c3)s2)n1 (single isomer, unassigned) [I-41]
IC50: 5 to 25 nM

SMILES: CCOc1cncc(-c2cnc(C(=O)N[C@H](c3cc(NS(=O)(=O)C4CC4)ccn3)C(C)(C)CN(C)C)s2)n1 (single isomer, unassigned) [I-42]
IC50: 50 to 100 nM

SMILES: CCOc1cncc(-c2cnc(C(=O)N[C@H](c3cc(NS(=O)(=O)C4CC4)ccn3)[C@H](C)OC)s2)n1 (single isomer, unassigned) [I-47]
IC50: 5 to 25 nM

SMILES: CCOc1cncc(-c2cnc(C(=O)N[C@@]3(c4cc(NS(=O)(=O)C5CC5)ccn4)CCOC3)s2)n1 (single isomer, unassigned) [I-71]
IC50: 5 to 25 nM

SMILES: CCOc1cncc(-c2cnc(C(=O)N[C@]3(c4cc(NS(=O)(=O)C5CC5)ccn4)CCOC3)s2)n1 (single isomer, unassigned) [I-72]
IC50: 5 to 25 nM
